Measurements taken from patent publication US7560591B2, “Benzamidine derivatives having anti-inflammatory and immunosuppressive activity” (Rotta Research Laboratorium S.p.A., priority 2001, dated 2009).
Where two headings read alike, the source gives them in different places.

Key:
[1] = test system: formation of NO, measured as NO2− (nitrites); assay: Inhibition of NO (nitrite) formation in rabbit joint chondrocytes stimulated by IL-1β; format: cell-based; settings: IL-1β 1 ng/ml, 48 hours, NO determined as nitrites
Description: (§1) a) The activity in inhibiting the formation of NO, measured as NO2^− (nitrites), PGE2, and neutral protease, was investigated in vitro on culture broths of rabbit joint chondrocytes stimulated by cytokine IL-1β (1 ng/ml) for 48 hours. For the preparation of the chondrocytes, the method described by Berenbaum et al [FEBS Letters 340, 51-55 (1994)] was followed. Briefly, fragments of cartilage removed under sterile conditions from the heads of rabbit shoulder, hip and knee joints were chopped finely and digested at 37° C. by hyaluronidase, trypsin and collagenase solutions, giving rise, after filtration on sterile gauze and centrifuging at 600×g and suitable dilution with 10% DMEM-FCS, to a concentration of approximately 1×10^5 cells per well. The cells were kept in these conditions until confluence (about 15 days), the broth being changed every 3 days. At this point, the products under test, dissolved in the medium, were added to each test sample and, after 20 minutes, 350 μl IL-1β was added in order to have a final concentration of 1 ng/ml. The duration of the stimulation was 48 hours at 37° C. (incubation air-CO2 7%). Measurement of the nitrites, as described by Green et al. [Anal. Biochem. 126, 131-138 (1982)], and of the PGE2s by RIA measurement, was then performed on the cell supernatant fluid. The measurement of the neutral proteases was performed in the cell supernatant fluid containing the p-aminophenyl mercury acetate (APMA) activator with the use of azocoll as the substrate and with incubation at 37° C. for 17 h as described by Chavira et al. [Anal. Biochem. 136, 446-450 (1984)]. In order to evaluate the direct inhibitory effect of the compounds under test on the hydrolytic activity of the cell supernatant fluid, they were added to the supernatant fluid containing the proteases induced by IL-1β and already activated by AMPA.
(§2) The results obtained are shown in Table 3, in which the IC50, that is, the concentration (micromolar) of antagonist which can inhibit the formation of nitrites, PGE2s, and neutral proteases, respectively, by 50% relative to the control group, that is, to the cells stimulated with IL-1β but without the addition of antagonists, is given for some of the compounds of the invention already given by way of example in Table 2.

formation of PGE2 = assay: Inhibition of PGE2 formation in rabbit joint chondrocytes stimulated by IL-1β (RIA); format: cell-based; settings: IL-1β 1 ng/ml, 48 hours
Description: as §1, §2

[2] = test system: neutral proteases (metalloproteases); assay: Inhibition of neutral proteases (metalloproteases) in supernatant of IL-1β-stimulated rabbit joint chondrocytes, azocoll substrate; format: biochemical; settings: IL-1β 1 ng/ml, 48 hours, APMA-activated supernatant, read-out: MP (metalloproteases) IC50
Description: as §1, §2

[3] = test system: colitis induced by TNBS in rats; assay: Colitis induced by TNBS in rats; format: in vivo, rat; settings: for Weight of the colon: 48 hours after TNBS; for Weight of the colon / Myeloperoxidase activity / iNOS activity / Macroscopic damage (MDS): mean ± SD; for Myeloperoxidase activity / iNOS activity: colon tissue; for Macroscopic damage (MDS): score 0-10
Description: The combined capability of some of the compounds of the invention to inhibit both iNOS and the synthesis of TNFα has led to their activity being checked in an experimental model of colitis caused by a chemical hapten, trinitrobenzene-sulphonic acid (TNBS), which can bind to the tissue proteins and stimulate cell-mediated immunity. The intrarectal administration of TNBS in association with ethanol causes acute inflammation characterised by extensive ulceration and necrosis.
A distal colitis was therefore induced in the rat by intrarectal instillation of TNBS (40 mg/kg) dissolved in 50% ethanol (0.5 ml/rat). The drugs were administered orally twice a day on days −2; −1; 0; +1 and the animals were killed 48 hours after the administration of TNBS.
The parameters examined were: total weight of the colon (g), macroscopic tissue damage “score”, measurement of the tissue myeloperoxidase (MPO) activity, which is a marker of the infiltration of the neutrophiles, and measurement of the iNOS activity (pmoles/g tissue/min.).
The macroscopic score (MDS) was taken on about 10 cm of colon in accordance with the following arbitrary scale:
The tissue MPO measurement was performed according to Velgara et al., JPET 1994. The measurement of the tissue nitrites was performed by applying the method described above for the chondrocytes to the supernatant fluid of the tissue homogenate.
Compound I-4, administered in doses of 5, 10 and 20 mg/kg, and compound I-11 were examined, by administering them orally, in comparison with sulphasalazine (250 mg/kg) and 5-aminosalicylic acid (5-ASA) (100 mg/kg), 2 drugs which are widely used in the treatment of ulcerative colitis.

[4] = test system: extravasation in the ears of mice; assay: Extravasation (Evans Blu) induced by phlogogenic agents in the ears of mice; format: in vivo
Description: b) Some of the compounds of the invention, such as compounds I-4, I-11 and I-31, were evaluated in vivo in a series of experimental extravasation models in which 5 μl of the preselected phlogogenic agent dissolved in physiological solution was injected intradermally into the ears of mice as described by Erdo et al., with slight modifications [Agents and Actions 39, 137-142 (1993)].
The products under test were administered orally 1 hour before the challenge and, 30 minutes before the challenge, the dye Evans Blu was injected intravenously in a dose of 100 mg/kg. The animals were killed at a time predetermined according to the test, 30 min.—2 hours after the challenge. The extravasation was evaluated by determining the quantity of dye present in the ear, extracted after homogenisation of the tissue in 2 ml of formamide and incubation at 50° C. for 2 hours. After centrifuging, the amount of dye was determined by measuring the absorption at 620 nm. The maximum % effect (% MPE) was calculated by the following formula:
[formula] in which EV is the mean absorption observed in the group of animals treated solely with the phlogogenic agent, ED is the group treated with the phlogogenic agent and the drug, and EB is the base value, that is, the value for the animals injected with physiological solution alone.
The phlogogenic agents used were:
Arachidonic acid (dissolved in EtOH); (1 mg/mouse; killed+30 min); histamine (3 nmoli/mouse; killed+30 min); PAF (30 pmoli/mouse; killed+60 min); Zymosan (10 μg/mouse; killed+120 min); bradykinin (0.6 nmoli/mouse; killed+30 min).

[5] = Oryctolagus cuniculus, Chondrocyte
[6] = OS, mouse ear, PAF, read-out: ED50, extravasation induced by PAF
[7] = 250 mg/kg, non-statistically significant

Row | IC50 [1] | IC50 (formation of PGE2) | IC50 [2] | Structure (SMILES) | further results
1 | 100 µM | 10 µM | 6.6 µM | CC(=N)Nc1ccc(NC(=S)Nc2ccccc2)cc1 [Compound I-13] | –
2 | – | – | 13.3 µM | CC(=N)Nc1ccc(NC(=S)NCc2ccccn2)cc1 [Compound I-19] | –
3 | 33.3 µM | 33.3 µM | – | CC(=N)Nc1ccc(NC(=O)C2CCCCC2)cc1 [Compound I-24] | –
4 | 16.6 µM | 16.6 µM | 6.6 µM | CC(=N)Nc1ccc(NC(=S)NCCc2ccccn2)cc1 [Compound I-20] | –
5 | 10 µM | 10 µM | 10 µM | CC(=N)Nc1ccc(NC(=S)NCCc2ccc(Cl)cc2)cc1 [Compound I-17] | –
6 | 100 µM | 33 µM | 6.6 µM | CC(=N)Nc1ccc(NC(=S)NCCc2ccccc2)cc1 [Compound I-14] | –
7 | 33 µM | 16.6 µM | 6.6 µM | CC(=N)Nc1ccc(NC(=S)NCCCc2ccccc2)cc1 [Compound I-15] | –
8 | – | 300 µM | – | CC(=N)Nc1cccc(NC(=S)NC2CCCCC2)c1 [Compound I-32] | –
9 | 10 µM | – | – | CC(=N)Nc1ccc(NC(=O)Cc2c[nH]c3ccccc23)cc1 [Compound I-27] | –
10 | 25 µM | 6.6 µM | 25 µM | CC(=N)Nc1ccc(NC(=O)NC2CCCCC2)cc1 [Compound I-29] | –
11 | – | 100 µM | – | CC(=N)Nc1ccc(NC(=O)c2cc3ccccc3n2C)cc1 [Compound I-28] | –
12 | 13.3 µM | 26.6 µM | 6.6 µM | CC(=N)Nc1ccc(NC(=S)NCCc2ccc(F)cc2)cc1 [Compound I-16] | –
13 | 100 µM | – | – | CCCCCC(=O)Nc1ccc(NC(C)=N)cc1 [Compound I-23] | –
14 | – | 6.6 µM | 6.6 µM | CC(=N)Nc1ccc(NC(=S)NCCc2c(F)cccc2F)cc1 [Compound I-18] | –
15 | – | 16.6 µM | – | CC(=N)Nc1ccc(NC(=O)C23CC4CC(CC(C4)C2)C3)cc1 [Compound I-25] | –
16 | 66.6 µM | – | – | CC(=N)Nc1ccc(NC(=S)Nc2ncc(C)s2)cc1 [Compound I-21] | –

Continued, compound first:

Row | Structure (SMILES) | IC50 [1] | IC50 (formation of PGE2) | IC50 [2] | further results
17 | Nc1ccc(O)c(C(=O)O)c1 [Compound 5-ASA, 5-aminosalicylic acid, reference compound] | – | – | – | activity on all of the parameters (in words) ([3]; 100 mg/kg): inactive; Weight of the colon ([3]; 100 mg/kg orally twice a day): 2.4 ± 0.4 g; Myeloperoxidase activity ([3]; 100 mg/kg orally twice a day): 7.9 ± 2.3 UMPO/g/min; iNOS activity ([3]; 100 mg/kg orally twice a day): 167.3 ± 106.5 pmol/g/min; Macroscopic damage (MDS) ([3]; 100 mg/kg orally twice a day): 6.9 ± 1.1
18 | CCC(=N)Nc1ccc(NC(=S)NC2CCCCC2)cc1 [Compound I-12] | – | 13.3 µM | 100 µM | –
19 | N=C(Nc1ccc(NC(=S)NC2CCCCC2)cc1)N[N+](=O)[O-] [Compound I-31] | 46.6 µM | 30 µM | 6.6 µM | ED50, extravasation induced by PAF ([4]; OS, mouse ear, PAF): 10.8 mg/kg; ED50, extravasation induced by Zymosan ([4]; OS, mouse ear, Zymosan): 10.5 mg/kg; ED50, extravasation induced by AA (arachidonic acid) ([4]; OS, mouse ear, arachidonic acid): 30.5 mg/kg
20 | CCCCNC(=S)Nc1ccc(NC(C)=N)cc1 [Compound I-3] | 190 µM | 250 µM | 13.3 µM | –
21 | CCCCCCCNC(=S)Nc1ccc(NC(C)=N)cc1 [Compound I-6] | – | – | 20 µM | IC50 [1, 5]: 30 µM; IC50 (formation of PGE2; [5]): 20 µM; melting point: 177.8 to 178.4 °C
22 | CS(=O)(=O)Nc1ccc([N+](=O)[O-])cc1Oc1ccccc1 [Nimesulide, reference compound] | – | – | – | ED50 [4, 6]: > 40 mg/kg; ED50 ([4]; OS, mouse ear, arachidonic acid, read-out: ED50, extravasation induced by AA (arachidonic acid)): 41 mg/kg; times less active than Compound I-4 ([4]; antagonising AA): 2 times
23 | CCCCCCNC(=S)Nc1ccc(NC(C)=N)cc1 [Compound I-5] | 10 µM | 10 µM | 3.3 µM | –
24 | CNC(=S)Nc1ccc(NC(C)=N)cc1 [Compound I-1] | – | – | 30 µM | –
25 | CN1C(C(=O)Nc2ccccn2)=C(O)c2ccccc2S1(=O)=O [Piroxicam, reference compound] | – | – | – | ED50 [4, 6]: 21.2 mg/kg; ED50 ([4]; OS, mouse ear, Zymosan, read-out: ED50, extravasation induced by Zymosan): 6.1 mg/kg
26 | CCCNC(=S)Nc1ccc(NC(C)=N)cc1 [Compound I-2] | – | – | 30 µM | IC50 [1, 5]: > 300 µM; IC50 (formation of PGE2; [5]): > 300 µM; melting point: 188.1 to 189.1 °C
27 | N=C(N)Nc1ccc(NC(=S)NC2CCCCC2)cc1 [Compound I-30, 1-guanidinophenyl-4-cyclohexyl Thiourea] | 6.6 µM | 10 µM | 13.3 µM | –
28 | O=C(O)c1cc(/N=N/c2ccc(S(=O)(=O)Nc3ccccn3)cc2)ccc1O [Sulphasalazine, sulphasalazine, reference compound] | – | – | – | Weight of the colon ([3]; 250 mg/kg orally twice a day): 2.5 ± 0.3 g; Myeloperoxidase activity ([3]; 250 mg/kg orally twice a day): 7.5 ± 5.5 UMPO/g/min; iNOS activity ([3]; 250 mg/kg orally twice a day): 100.8 ± 86.8 pmol/g/min; Macroscopic damage (MDS) ([3]; 250 mg/kg orally twice a day): 6.0 ± 2.9; effect on iNOS activity [3, 7]: about 50%; effect on macroscopic damage [3, 7]: about 20%
29 | CC(=N)Nc1ccc(NC(=S)NC2CCCCC2)cc1 [Compound I-11] | 110 µM | 16.6 µM | 30 µM | activity in TNBS colitis (in words) ([3]; 20 mg/kg): active; Weight of the colon ([3]; 20 mg/kg orally twice a day): 2.2 ± 0.3 g; Myeloperoxidase activity ([3]; 20 mg/kg orally twice a day): 6.5 ± 1.8 UMPO/g/min; iNOS activity ([3]; 20 mg/kg orally twice a day): 90.6 ± 45.6 pmol/g/min; Macroscopic damage (MDS) ([3]; 20 mg/kg orally twice a day): 4.3 ± 0.9(*)
30 | CC(=N)Nc1ccc(NC(=S)NCCC(C)C)cc1 [Compound I-7] | 3.3 µM | 6.6 µM | 13.3 µM | –
